In article PMC9238401, “Peptide Conjugates Derived from flg15, Pep13, and PIP1 That Are Active against Plant-Pathogenic Bacteria and Trigger Plant Defense Responses” (Applied and Environmental Microbiology, 2022):
No end group written: not given here.

Legend:
horse erythrocytes = details: TRIS buffer pH 7.2, 1 h, 37°C, absorbance 540 nm, relative to melittin 100 μM, ± confidence interval (α = 0.05)
Procedure: The toxicity of peptide conjugates to eukaryotic cells was determined as the ability to lyse erythrocytes (Table SB).
The hemolytic activity of the compounds was evaluated by determining hemoglobin release from erythrocyte suspensions of horse blood (5% vol/vol) (Oxoid) as previously described ([45]). Blood was centrifuged at 6000g for 5 min, washed three times with TRIS buffer (10 mM TRIS, 150 mM NaCl, pH 7.2) and diluted 10 times. Compounds were solubilized in TRIS buffer at 750, 500, 300, and 100 μM and mixed with horse erythrocytes (1:1 vol/vol). The mixture was incubated with continuous shaking for 1 h at 37°C. Then, the tubes were centrifuged at 3500g for 10 min, 80-μL aliquots of the supernatant were transferred to 100-well microplates (Bioscreen) and diluted with 80 μL water, and the absorbance measured at 540 nm (Bioscreen). […] The percentage of hemolysis (H) was calculated using the equation H = 100 × ([Op − Ob]/[Om − Ob]), where Op is the density for a given compound concentration, Ob is that for the buffer, and Om is that for the melittin positive control.

[1] = test system: Xanthomonas axonopodis pv. vesicatoria 2133-2; details: TSB, 25°C, 48 h, OD 600 nm (Bioscreen C), three replicates, experiment repeated twice; MIC given as range
Source text: The corresponding monomers (flg15, BP13, Pep13, PIP1, BP16, BP100, BP143, BP387, BP475, and KSL-W) were included for comparison.
(§1) The following plant-pathogenic bacterial strains were used: Erwinia amylovora PMV6076 (Institut National de la Recherche Agronomique, Angers, France), Pseudomonas syringae pv. syringae EPS94 (Institut de Tecnologia Agroalimentària, University of Girona, Spain), Xanthomonas axonopodis pv. vesicatoria 2133-2, X. axonopodis pv. vesicatoria Xav206 (Xav) (D. F. Ritchie, Department of Plant Pathology, North Carolina State University), Pseudomonas syringae pv. actinidiae Psa3700.1.1, Xanthomonas fragariae Xf349-9A (Instituto Valenciano de Investigaciones Agrarias, Valencia, Spain), and Xanthomonas arboricola pv. pruni CFBP5563 (Collection Française de Bactéries Associées aux Plantes, Angers, France). All bacteria except for X. fragariae were stored in Luria Bertani (LB) broth supplemented with glycerol (20%) and maintained at −80°C. For X. fragariae, medium B ([80]) was used instead of LB. E. amylovora, X. arboricola pv. pruni, P. syringae pv. syringae, and P. syringae pv. actinidiae were scraped from the agar medium after growing for 24 h at 25°C, and X. axonopodis pv. vesicatoria and X. fragariae, after growing for 48 h at 25°C. The cell material was suspended in sterile water to obtain a suspension of 10^8 CFU mL^−1.
(§2) Lyophilized peptides were solubilized in sterile Milli-Q water to a final concentration of 1 mM and filter-sterilized through a 0.22-μm pore filter. […] Then, 20 μL of each dilution were mixed in a microtiter plate well with 20 μL of the corresponding suspension of the bacterial indicator, 160 μL of Trypticase soy broth (TSB) (bioMérieux, France) to a total volume of 200 μL. Three replicates for each combination of strain, compound, and concentration were used. Microbial growth was determined by optical density measurement at 600 nm (Bioscreen C; Labsystem, Helsinki, Finland). Microplates were incubated at 25°C with 20 s of shaking before hourly absorbance measurement for 48 h. The experiment was repeated twice. The MIC was taken as the lowest compound concentration with no growth at the end of the experiment.

tobacco leaves = test: Effect of peptide infiltration on tobacco leaves (phytotoxicity); type: in vivo
Procedure: Peptide conjugates were also assayed for their toxicity in tobacco leaves (Fig. 3, Table SC). After 48 h of infiltration, melittin caused a necrotic area of 0.70 and 2.17 cm in diameter at 50 and 250 μM, respectively. The monomers were not phytotoxic at those concentrations; all of them led to lesions of ≤1.2 cm at 250 μM. All peptide conjugates were also less phytotoxic than melittin, causing necrotic lesions between 0.26 and 1.67 cm in diameter at 250 μM. In particular, 15 of the 30 conjugates led to a necrotic area of <1 cm at this concentration. In general, sequences incorporating BP13 were among the most phytotoxic.
Peptide conjugates were evaluated for their effect on infiltration on tobacco leaves as described previously ([41]). Peptide solutions of 50, 150, and 250 μM were infiltrated (100 μL) into the mesophylls of fully expanded tobacco leaves. Infiltrations were carried out in a single leaf, and for each peptide and dose, at least three leaves randomly distributed in different plants were inoculated. Control infiltrations with water (negative control) or melittin (positive control) at the same molar concentration were performed. The appearance of symptoms on the leaves was followed for 48 h after infiltration and measured as lesion diameter.

[2] = test system: Xanthomonas fragariae Xf349-9A; test: In vitro growth inhibition (MIC); type: cell-based; details: TSB, 25°C, 48 h, OD 600 nm (Bioscreen C), three replicates, experiment repeated twice; MIC given as range
Procedure: (§3) Peptide conjugates were tested for in vitro growth inhibition of the plant-pathogenic bacteria E. amylovora PMV6076, Xanthomonas arboricola pv. pruni CFBP5563, X. fragariae Xf349-9A, X. axonopodis pv. vesicatoria 2133-2, P. syringae pv. actinidiae Psa3700.1.1, and P. syringae pv. syringae EPS94 (Fig. 1, Table SA). The corresponding monomers (flg15, BP13, Pep13, PIP1, BP16, BP100, BP143, BP387, BP475, and KSL-W) were included for comparison.
as §1, §2

[3] = test system: Pseudomonas syringae pv. syringae EPS94; test: In vitro growth inhibition (MIC); type: cell-based; details: TSB, 25°C, 48 h, OD 600 nm (Bioscreen C), three replicates, experiment repeated twice; MIC given as range
Procedure: as §3, §1, §2

[4] = test system: Pseudomonas syringae pv. actinidiae Psa3700.1.1; test: In vitro growth inhibition (MIC); type: cell-based; details: TSB, 25°C, 48 h, OD 600 nm (Bioscreen C), three replicates, experiment repeated twice; MIC given as range
Procedure: as §3, §1, §2

[5] = test system: Erwinia amylovora PMV6076; test: In vitro growth inhibition (MIC); type: cell-based; details: TSB, 25°C, 48 h, OD 600 nm (Bioscreen C), three replicates, experiment repeated twice; MIC = lowest concentration with no growth, given as range
Procedure: as §3, §1, §2

[6] = test system: Xanthomonas arboricola pv. pruni CFBP5563; test: In vitro growth inhibition (MIC); type: cell-based; details: TSB, 25°C, 48 h, OD 600 nm (Bioscreen C), three replicates, experiment repeated twice; MIC given as range
Procedure: as §3, §1, §2

[7] = HPLC retention time as indicator of relative hydrophobicity; type: physicochemical; details: chromatographic, Kromasil 100 C18 (4.6 mm × 40 mm, 3 μm), linear gradient 2 to 100% B over 12 min, 1 mL/min; A 0.1% aqueous TFA, B 0.1% TFA in CH3CN; used as indicator of relative hydrophobicity
Procedure: The parameters related to the structure of the peptide conjugates (sequence, charge, hydrophobic ratio [HR], and HPLC retention time), as well as their physicochemical properties (grand average hydropathicity [GRAVY] and hydrophobic moment [<μH>]) obtained from the online programs ProtParam (Expasy server) and HeliQuest are included in Table 1.
Peptides were analyzed under standard analytical HPLC conditions. Method A: peptides were analyzed with a Dionex liquid chromatography instrument composed of a UV/Vis Dionex UVD170U detector, a P680 Dionex pump, an ASI-100 Dionex automatic injector, and Chromeleon 6.60 software. Detection was performed at a wavelength of 220 nm. Solvent A was 0.1% aqueous trifluoroacetic acid (TFA), and solvent B was 0.1% TFA in CH3CN. Analyses were carried out with a Kromasil 100 C18 (4.6 mm × 40 mm, 3 μm) column with a linear gradient of 2 to 100% B over 7 min at a flow rate of 1 mL/min. Method B: peptides were analyzed with a 1260 Infinity II liquid chromatography instrument (Agilent Technologies) composed of a diode array detector HS, a quaternary pump VL, a 1260 vial sampler, and OpenLab CDS ChemStation software. Analyses were carried out with a Kromasil 100 C18 (4.6 mm × 40 mm, 3 μm) column with a linear gradient of 2 to 100% B over 12 min at a flow rate of 1 mL/min.

[8] = 100 μL infiltrated into mesophyll, lesion diameter 48 h after infiltration, at least three leaves, ± confidence interval (α = 0.05)

| Substance | Percent hemolysis at 50 μM (horse erythrocytes) | Percent hemolysis at 150 μM (horse erythrocytes) | Percent hemolysis at 250 μM (horse erythrocytes) | Percent hemolysis at 375 μM (horse erythrocytes) | MIC, Xav [1] | Size of the lesions in infiltrated tobacco leaves at 50 μM (tobacco leaves; [8]) | Size of the lesions in infiltrated tobacco leaves at 150 μM (tobacco leaves; [8]) | Size of the lesions in infiltrated tobacco leaves at 250 μM (tobacco leaves; [8]) | MIC, Xf [2] | MIC, Pss [3] | MIC, Psa [4] | MIC, Ea [5] | MIC, Xap [6] | tR (min), HPLC retention time (method B) [7] | Size of the lesions in infiltrated tobacco leaves at 50 μM (tobacco leaves; in vivo) | Size of the lesions in infiltrated tobacco leaves at 150 μM (tobacco leaves; in vivo) | Size of the lesions in infiltrated tobacco leaves at 250 μM (tobacco leaves; in vivo) |
| --- | --- | --- | --- | --- | --- | --- | --- | --- | --- | --- | --- | --- | --- | --- | --- | --- | --- |
| FKLFKKILKVL-KKLfKKILKYL-NH2 [BP13-BP143, peptide conjugate, BP13 at N-terminus, BP143 at C-terminus] | 100 ± 0.6% | 100 ± 3.7% | 100 ± 3.2% | 100 ± 10.6% | 1.6 to 3.1 µM | 0.53 ± 0.18 cm | 0.88 ± 0.15 cm | 1.07 ± 0.37 cm | 12.5 to 25 µM | > 50 µM | > 50 µM | > 50 µM | 6.2 to 12.5 µM | – | – | – | – |
| FKLFKKILKVL-NH2 [BP13, reference compound] | 5 ± 0.2% | 13 ± 2% | 27 ± 3% | 42 ± 3% | 50 to 100 µM | 0.20 ± 0.24 cm | 0.48 ± 0.15 cm | 0.96 ± 0.19 cm | 25 to 50 µM | 12.5 to 25 µM | 3.1 to 6.2 µM | 25 to 50 µM | 6.2 to 12.5 µM | – | – | – | – |
| KKLFKKILKKL-FKLFKKILKVL-NH2 [BP16-BP13, peptide conjugate, BP16 at N-terminus, BP13 at C-terminus] | 100 ± 4.0% | 100 ± 2.3% | 100 ± 8.5% | 100 ± 2.1% | 1.6 to 3.1 µM | 0.68 ± 0.16 cm | 1.15 ± 0.28 cm | 1.52 ± 0.32 cm | 12.5 to 25 µM | 12.5 to 25 µM | 25 to 50 µM | > 50 µM | 6.2 to 12.5 µM | – | – | – | – |
| KKLFKKILKYL-FKLFKKILKVL-NH2 [BP100-BP13, peptide conjugate, BP100 at N-terminus, BP13 at C-terminus] | 100 ± 9.4% | 100 ± 5.5% | 98 ± 3.3% | 99 ± 3.7% | 6.2 to 12.5 µM | 0.73 ± 0.20 cm | 1.36 ± 0.23 cm | 1.46 ± 0.06 cm | 6.2 to 12.5 µM | > 50 µM | 25 to 50 µM | > 50 µM | 12.5 to 25 µM | – | – | – | – |
| KKLfKKILKYL-FKLFKKILKVL-NH2 [BP143-BP13, peptide conjugate, BP143 at N-terminus, BP13 at C-terminus] | 100 ± 6.1% | 100 ± 3.6% | 100 ± 7.1% | 100 ± 7.0% | 6.2 to 12.5 µM | 0.18 ± 0.10 cm | 0.40 ± 0.14 cm | 1.14 ± 0.36 cm | 6.2 to 12.5 µM | > 50 µM | 25 to 50 µM | > 50 µM | 12.5 to 25 µM | – | – | – | – |
| RINSAKDDAAGLQIA-KKLFKKILKYL-NH2 [flg15-BP100, peptide conjugate, flg15 at N-terminus, BP100 at C-terminus] | 48 ± 4.1% | 52 ± 4.3% | 63 ± 2.4% | 66 ± 9.2% | 0.8 to 1.6 µM | 0.46 ± 0.10 cm | 0.80 ± 0.22 cm | 1.02 ± 0.24 cm | 6.2 to 12.5 µM | 12.5 to 25 µM | – | 6.2 to 12.5 µM | 0.8 to 1.6 µM | 6.29 min | – | – | – |
| VWNQPVRGFKVYE-OH [Pep13, pathogen-associated molecular pattern (PAMP) from Phytophthora sojae; plant defense elicitor monomer] | 0 ± 0.6% | 0 ± 0.3% | 2 ± 0.1% | 0 ± 0.1% | > 50 µM | – | – | – | > 50 µM | > 50 µM | > 50 µM | > 50 µM | > 50 µM | – | 0 ± 0 cm | 0 ± 0 cm | 0 ± 0 cm |
